# Tests used:
# Assay in all cases: relative viability (nuclei count vs DMSO), 5 days (fraction); higher = more cells survive
# [1] = compound: CCn1c(-c2nonc2N)nc2cnc(Oc3cccc(NC(=O)c4ccc(OCCN5CCOCC5)cc4)c3)cc21 + CC(=O)Nc1cccc(-n2c(=O)n(C3CC3)c(=O)c3c(Nc4ccc(I)cc4F)n(C)c(=O)c(C)c32)c1 [Trametinib] (partner 0.02 µM)
# Procedure, shortened: (§1)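 Each reported value is a median over duplicate plates. It expresses relative viability: treated-well nuclei count divided by vehicle-well nuclei count. Lung cancer cell lines in 1536-well plates were dosed by pin tool a day after seeding, alone with one drug or with a fixed anchor-drug dose plus five library-drug doses (not always all listed) in √10 steps, and nuclei were counted after 5 days.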
# [2] = compound: CCC1=CN=CN=C1N2CCN(CC2)CC3=NC4=C(N3)C=C(C=C4)C(F)(F)F + Cc1nc(NC(=O)N2CCC[C@H]2C(N)=O)sc1-c1ccnc(C(C)(C)C(F)(F)F)c1 [Alpelisib] (partner 2 µM)
# Procedure, shortened: as §1
# [3] = compound: CCn1c(-c2nonc2N)nc2cnc(Oc3cccc(NC(=O)c4ccc(OCCN5CCOCC5)cc4)c3)cc21 + CS(=O)(=O)CCNCc1ccc(-c2ccc3ncnc(Nc4ccc(OCc5cccc(F)c5)c(Cl)c4)c3c2)o1 [Lapatinib] (partner 2 µM)
# Procedure, shortened: as §1
# [4] = compound: CCC1=CN=CN=C1N2CCN(CC2)CC3=NC4=C(N3)C=C(C=C4)C(F)(F)F + O=C(c1cc(Cc2n[nH]c(=O)c3ccccc23)ccc1F)N1CCN(C(=O)C2CC2)CC1 [Olaparib] (partner 8 µM)
# Procedure, shortened: as §1
Cell Line,relative viability ([1]; first compound 0.04 µM),relative viability ([1]; first compound 0.1265 µM),relative viability ([1]; first compound 0.4 µM),relative viability ([1]; first compound 1.265 µM),relative viability ([1]; first compound 4 µM),relative viability ([2]; first compound 0.04 µM),relative viability ([2]; first compound 0.1265 µM),relative viability ([2]; first compound 0.4 µM),relative viability ([2]; first compound 1.265 µM),relative viability ([2]; first compound 4 µM),relative viability ([3]; first compound 0.04 µM),relative viability ([3]; first compound 0.1265 µM),relative viability ([3]; first compound 0.4 µM),relative viability ([3]; first compound 1.265 µM),relative viability ([3]; first compound 4 µM),relative viability ([4]; first compound 0.04 µM),relative viability ([4]; first compound 0.1265 µM),relative viability ([4]; first compound 0.4 µM),relative viability ([4]; first compound 1.265 µM),relative viability ([4]; first compound 4 µM)
LXF-289,0.761,0.75,0.685,0.667,0.754,1.01,1.01,0.972,0.996,0.974,1.04,1.02,0.856,0.737,0.645,1.08,1.01,1.05,1.02,0.933
NCI-H23,0.413,0.405,0.407,0.281,0.305,0.807,0.652,0.706,0.599,0.781,1.34,1.17,–,0.688,0.698,0.353,0.4,0.29,0.345,0.243
NCI-H322M,0.631,0.604,0.522,0.487,0.57,0.741,0.892,0.749,0.705,0.748,0.572,0.659,0.437,0.876,0.783,0.792,0.811,0.725,0.672,0.85
NCI-H358,0.14,0.161,0.115,0.129,0.113,0.892,0.836,0.833,0.853,0.747,0.474,0.479,0.29,0.525,0.316,0.659,0.607,0.542,0.62,0.548
NCI-H460,0.132,0.203,0.0433,0.0407,0.0579,0.445,0.559,0.385,0.398,0.583,1.93,0.994,0.656,0.202,0.299,0.521,0.423,0.404,0.368,0.399
NCI-H520,0.734,0.738,0.469,0.406,0.311,1.08,0.883,0.838,0.765,1.01,1,0.897,0.632,0.385,0.312,0.291,0.415,0.349,0.333,0.298
NCI-H596,0.797,0.804,0.825,0.555,0.657,0.573,0.431,0.443,0.459,0.508,1.04,0.942,0.978,0.87,0.97,0.737,0.64,0.575,0.649,0.747
NCI-H647,0.494,0.38,0.261,0.303,0.286,1.16,1.05,–,1.02,1.05,1.26,0.774,0.634,0.526,0.548,0.458,0.528,0.452,0.519,0.408
NCI-H650,1.11,0.826,0.597,0.587,0.588,1.02,1.1,0.968,0.997,0.965,1.29,0.686,0.5,0.269,0.472,0.386,0.373,0.393,0.331,0.347
NCI-H661,0.469,0.498,0.355,0.451,0.346,0.561,0.512,0.506,–,0.57,0.47,0.457,0.457,0.39,0.385,0.802,0.719,0.767,0.661,0.738
NCI-H727,–,0.392,0.386,0.461,0.423,0.684,0.483,0.463,–,0.544,1.12,0.894,0.339,0.868,0.569,0.73,0.593,0.719,0.61,0.641
NCI-H838,0.347,0.231,0.213,0.17,0.188,1.1,0.963,0.971,0.994,0.986,0.804,0.485,0.323,0.281,0.261,0.816,0.752,0.737,0.712,0.74
NCI-H1355,0.322,0.433,0.434,0.392,0.398,0.815,0.74,0.807,0.732,0.797,1.07,0.978,0.712,0.62,0.597,0.775,0.654,0.732,0.667,0.643
NCI-H1395,1.18,0.986,0.849,0.622,0.717,1.04,1.1,1.05,0.951,1.04,1.22,0.92,0.632,0.418,0.57,0.459,0.482,0.461,–,0.469
NCI-H1437,0.599,0.556,0.517,0.435,0.403,1,0.93,0.831,0.795,0.855,0.826,0.679,0.58,0.536,0.5,0.597,0.595,0.575,0.544,0.505
NCI-H1651,0.925,0.891,0.828,0.623,0.81,1.01,0.961,0.876,0.818,0.907,0.998,0.819,0.639,0.49,0.421,0.206,0.179,0.175,0.19,0.17

# Source: the supplement of paper PMC10307832
